Assay results reported in EPA's ToxValDB 9.5.
Values joined by “and” are separate entries in the source; they are usually repeats but may differ in a detail not shown here. Equal entries are not always repeated. Blank lines part the entries; values can stand above or below the compound they belong to.

How the values were obtained:
Mus musculus = settings: for LD50: acute
Oryctolagus sp. = settings: for LD50: acute
Rattus norvegicus [1] = system: Rattus norvegicus
Rattus norvegicus [2] = settings: oral, gavage
Canidae = settings: chronic, oral, diet, Dog Other
Rattus norvegicus [3] = settings: Hershberger; duration: 10 days; oral; gavage; Sprague-Dawley; inactive + Negative + Negative + neither + negative
[4] = duration: 2 years, M/F, abnormal pigments in blood
[5] = duration: 2 years, M/F, testicular degeneration
[6] = duration: 6 months, M/F, increased serum alkaline phosphatase levels and increased liver-to-brain weight ratio
[7] = acute, oral, gavage, Sprague-Dawley
[8] = subchronic, duration: 13 weeks, oral, gavage, Sprague-Dawley
[9] = duration: 1 years, F, anemia (males)
[10] = duration: 1 years, M, anemia (males)
[11] = duration: 1 years, M, increased serum bilirubin and aspartate aminotransferase, increased urinary volume

Compound: C=CCOC(=O)OCCOCCOC(=O)OCC=C [Diallyl diglycol carbonate]
- LD50 (Mus musculus; injection, Intraperitoneal, albino): 269 mg/kg
- NOAEL (Oryctolagus sp.; reproduction developmental, duration: 6 days, dermal, New Zealand): 0.1 mg/kg-day
- LD50 (Rattus norvegicus [1]; acute, oral, gavage, Crl): 349 mg/kg
- LD50 (Rattus norvegicus [1]; acute, oral, gavage, Fischer 344): 515 mg/kg

Compound: C1=CC2C3C=CC(C3)C2C1 (configuration not stated) [Dicyclopentadiene]
- NOAEL (Oryctolagus sp.; reproduction developmental, duration: 14 days, oral, gavage, F, New Zealand): 25 mg/kg-day
- NOAEL (Rattus norvegicus [1]; developmental, duration: 10 days, oral, diet, Sprague-Dawley): 750 ppm
- NOAEL (Rattus norvegicus [1]; developmental, duration: 10 days, oral, gavage, Sprague-Dawley): 50 mg/kg-day
- NOAEL (Rattus norvegicus [1]; reproduction developmental, duration: 10 days, oral, diet, F, Sprague-Dawley): 750 ppm
- NOAEL (Rattus norvegicus [1]; reproduction developmental, oral, diet, Sprague-Dawley, generation: F0): 750 ppm
- NOAEL (Rattus norvegicus [1]; reproduction developmental, oral, diet, Sprague-Dawley, generation: F1): 750 ppm
- NOAEL (Rattus norvegicus [1]; reproduction developmental, oral, diet, Sprague-Dawley, generation: F2): 750 ppm
- NOAEL (Rattus norvegicus [1]; reproduction developmental, oral, gavage, F, Sprague-Dawley): 20 mg/kg-day
- NOAEL (Rattus norvegicus [1]; reproduction developmental, oral, gavage, M, Sprague-Dawley): 100 mg/kg-day
- NOAEL (Rattus norvegicus [1]; reproduction developmental, oral, gavage, Sprague-Dawley, generation: F1): 20 mg/kg-day
- NOEL (Rattus norvegicus [2]; short-term, duration: 28 days, M/F, Fischer 344, Deaths + Clinical Observation: Salivation + Body Weight Changes: Weight gain decrease + Food Consumption: decrease + Blood Chemistry: GPT …): 8 mg/kg-day

- LEL (Canidae; [4]): 3.12 mg/kg-day
Compound: CN(C)C(=O)Nc1ccc(Cl)c(Cl)c1 [Diuron]
- NOEL (Rattus norvegicus [2]; subchronic, M, Sprague-Dawley, Body Weight Changes: decrease + Hematology: RBC decrease, Hgb decrease, Hct decrease, MCHC decrease, MCV increase, Ret increase + Blood …): 20 mg/kg-day
- NOEL (Canidae; [4]): 0.625 mg/kg-day

Compound: CCOC(=O)CCl [Ethyl chloroacetate]
- LD50 (Mus musculus; injection, subcutaneous): 250 mg/kg
- LD50 (Mus musculus; oral): 350 mg/kg
- LD50 (Oryctolagus sp.; dermal): 335 mg/kg and 230 mg/kg
- LD50 (Oryctolagus sp.; dermal, occlusive, New Zealand): 255 mg/kg
- LD50 (Rattus norvegicus [1]; acute, dermal): 161 mg/kg

Compound: CCOP(=O)=O.CCOP(=O)=O.CCOP(=O)=O.[Al+3] [Fosetyl aluminum]
- NOEL (Canidae; duration: 2 years, testicular degeneration): 250 mg/kg-day
- LEL (Canidae; [5]): 400 mg/kg-day
- NOEL (Canidae; [5]): 250 mg/kg-day

Compound: COCC(=O)N(c1c(C)cccc1C)C(C)C(=O)OC (configuration not stated) [Metalaxyl]
- LEL (Canidae; [6]): 25 mg/kg-day
- NOEL (Canidae; [6]): 6.25 mg/kg-day
- NOEL (Rattus norvegicus [3]): 350 mg/kg-day

Compound: CC(C)CCC(C)Nc1ccc(NC(C)CCC(C)C)cc1 (configuration not stated) [N,N'-Bis(1,4-dimethylpentyl)-4-phenylenediamine]
- LD50 (Oryctolagus sp.; dermal, occlusive, New Zealand): > 3160 mg/kg
- LC50 (Rattus norvegicus [1]; acute, inhalation): > 400 mg/m3
- LD50 (Rattus norvegicus [1]; [7]): 730 mg/kg
- LOAEL (Rattus norvegicus [1]; chronic, duration: 22 weeks, inhalation): 100 mg/m3
- NOAEL (Rattus norvegicus [1]; developmental, duration: 10 days, oral, gavage, Charles River CD Albino): 150 mg/kg-day
- NOAEL (Rattus norvegicus [1]; reproduction developmental, duration: 23 weeks, oral, diet, generation: F0): 30 ppm
- NOAEL (Rattus norvegicus [1]; reproduction developmental, duration: 23 weeks, oral, diet, generation: F1): 30 ppm
- NOAEL (Rattus norvegicus [1]; reproduction developmental, duration: 23 weeks, oral, diet, generation: F2): 30 ppm
- NOAEL (Rattus norvegicus [1]; reproduction developmental, duration: 10 days, oral, gavage, F, Charles River CD Albino): 25 mg/kg-day
- NOAEL (Rattus norvegicus [1]; subchronic, duration: 30 days, oral, diet, F, Sprague-Dawley): 28.8 mg/kg-day
- NOAEL (Rattus norvegicus [1]; subchronic, duration: 30 days, oral, diet, M, Sprague-Dawley): 9.6 mg/kg-day
- NOAEL (Rattus norvegicus [1]; subchronic, duration: 90 days, oral, diet, M, Sprague-Dawley): 9.6 mg/kg-day

Compound: CN1C(=O)c2ccc([N+](=O)[O-])cc2C1=O [N-Methyl-4-nitrophthalimide]
- LD50 (Oryctolagus sp.; dermal, New Zealand): > 2000 mg/kg
- NOAEL (Oryctolagus sp.; developmental, duration: 13 days, oral, gavage, New Zealand): 50 mg/kg-day
- NOAEL (Oryctolagus sp.; reproduction developmental, duration: 13 days, oral, gavage, F, New Zealand): 50 mg/kg-day
- LD50 (Rattus norvegicus [1]; acute, inhalation, whole body, Sprague-Dawley): > 36 mg/L
- LD50 (Rattus norvegicus [1]; [7]): 2800 mg/kg
- NOAEL (Rattus norvegicus [1]; developmental, duration: 9 days, oral, gavage, Sprague-Dawley): 50 mg/kg-day
- NOAEL (Rattus norvegicus [1]; reproduction developmental, duration: 4 weeks, oral, gavage, Sprague-Dawley): > 25 mg/kg-day
- NOAEL (Rattus norvegicus [1]; reproduction developmental, duration: 4 weeks, oral, gavage, Sprague-Dawley, generation: F0): 2.5 mg/kg-day
- NOAEL (Rattus norvegicus [1]; reproduction developmental, duration: 4 weeks, oral, gavage, Sprague-Dawley, generation: F1): > 25 mg/kg-day
- NOAEL (Rattus norvegicus [1]; reproduction developmental, duration: 9 days, oral, gavage, F, Sprague-Dawley): 10 mg/kg-day
- LOAEL (Rattus norvegicus [1]; [8]): 10 mg/kg-day
- NOAEL (Rattus norvegicus [1]; [8]): 1 mg/kg-day

Compound: CCCCCCCCC=O [Nonanal]
- LD50 (Oryctolagus sp.; dermal, albino): > 5000 mg/kg
- LD50 (Rattus norvegicus [1]; acute, oral, gavage, Wistar): > 5000 mg/kg

Compound: CCC/C(=N\OCC)C1=C(O)CC(CC(C)SCC)CC1=O (configuration not stated) [Sethoxydim]
- LEL (Canidae; [9]): 19.9 mg/kg-day
- NOEL (Canidae; [9]): 9.41 mg/kg-day
- LEL (Canidae; [10]): 17.5 mg/kg-day
- NOEL (Canidae; [10]): 8.86 mg/kg-day

Compound: CCN(CC)C(=S)SSC(=S)N(CC)CC [Tetraethylthiuram disulfide]
- NOAEL (Mus musculus; reproduction developmental, duration: 6 days, oral, gavage, CD1, generation: F1): > 4900 mg/kg-day
- LD50 (Oryctolagus sp.; dermal, occlusive, New Zealand): > 2000 mg/kg
- LD50 (Rattus norvegicus [1]; [7]): 4570 mg/kg and > 5200 mg/kg and 7070 mg/kg
- NOAEL (Rattus norvegicus [1]; reproduction developmental, duration: 19 days, oral, gavage, F, Sprague-Dawley): > 250 mg/kg-day

Compound: COC(=O)c1ccccc1S(=O)(=O)NC(=O)N(C)c1nc(C)nc(OC)n1 [Tribenuron-methyl]
- LEL (Canidae; [11]): 8.16 mg/kg-day
- NOEL (Canidae; [11]): 0.79 mg/kg-day

Compound: Cc1ccc(OP(=O)(Oc2ccc(C)cc2C)Oc2ccc(C)cc2C)c(C)c1 [Trixylyl phosphate]
- LD50 (Oryctolagus sp.; dermal, New Zealand): > 2000 mg/kg
- LD50 (Rattus norvegicus [1]; [7]): > 20000 mg/kg
